Four compounds from patent US7732464B2, “Heterocyclic substituted 4-(aminomethyl)-piperidine benzamides as 5HT4-antagonists” (Janssen Pharmaceutica, N.V., priority 2003, dated 2010) can be followed below.

One series addresses T1, h5-HT4b (Homo sapiens, UniProt Q13639).
T1 construct: expressed in transfected cells; host or cells: HEK 293 (clone 9), membrane preparation
Kind of series: 5HT4 antagonism: [3H]GR113808 binding to membranes of h5-HT4b-HEK 293 clone 9 cells. The conditions noted are these: displacement of [3H]GR113808 0.1 nM; h5-HT4b-HEK 293 membranes; 30 min at 25° C.; read-out: pIC50 (5HT4 antagonistic data) (converted). The protocol:
h5-HT4b-HEK 293 clone 9 cells were cultured in 150 mm Petri dishes and washed twice with cold PBS. The cells were then scraped from the plates and suspended in 50 mM Tris-HCl buffer, pH 7.4 and harvested by centrifugation at 23,500 rpm for 10 minutes. The pellet was resuspended in 5 mM Tris-HCl, pH 7.4 and homogenized with an Ultra Turrax homogenizer. The membranes were collected by centrifugation at 30,000 rpm for 20 min, resuspended in 50 mM Tris-HCl pH 7.4 and stored at −80° C. For the experiment, assay mixtures (0.5 ml) contained 50 μl of the tritiated ligand (5-HT4 antagonist [^3H]GR113808 0.1 nM) and 0.4 ml membrane preparation (15 μg protein/ml). 50 μl of 10% DMSO was added for total binding. 50 μl of 1 μM of (+)-trans-(1-butyl-3-hydroxy-4-piperidinyl)methyl 8-amino-7-chloro-2,3-dihydro-1,4-benzodioxin-5-carboxylate (a proprietary 5HT4 agonist of Janssen Pharmaceutica) was added for determination of non-specific binding.
The [^3H]GR113808 assay buffer was 50 mM HEPES-NaOH, pH 7.4. The mixtures were incubated for 30 min at 25° C. The incubation was terminated by filtration over a Unifilter 96 GF/B presoaked in 0.1% polyethylenimine, followed by six washing steps with 50 mM HEPES-NaOH, pH 7.4.

A short description of series [1]: Metabolic stability: incubation with liver microsomes and NADPH-generating system, LC-MS analysis. The series is classed as in vitro ADME. The conditions noted are these: compound 5 μM; microsomes 1 mg/ml; NADPH-generating system; 60 minutes at 37 degrees Celsius. The protocol: Sub-cellular tissue preparations were made according to Gorrod et al. (Xenobiotica 5: 453-462, 1975) by centrifugal separation after mechanical homogenization of tissue. Liver tissue was rinsed in ice-cold 0.1 M Tris-HCl (pH 7.4) buffer to wash excess blood. Tissue was then blotted dry, weighed and chopped coarsely using surgical scissors. The tissue pieces were homogenized in 3 volumes of ice-cold 0.1 M phosphate buffer (pH 7.4).
Tissue homogenates were centrifuged at 9000×g for 20 minutes at 4° C. The resulting supernatant was stored at −80° C. and is designated ‘S9’.
The S9 fraction can be further centrifuged at 100.000×g for 60 minutes (4° C.). The resulting supernatant was carefully aspirated, aliquoted and designated ‘cytosol’. The pellet was re-suspended in 0.1 M phosphate buffer (pH 7.4) in a final volume of 1 ml per 0.5 g original tissue weight and designated ‘microsomes’.
All sub-cellular fractions were aliquoted, immediately frozen in liquid nitrogen and stored at −80° C. until use.
For the samples to be tested, the incubation mixture contained PBS (0.1M), compound (5 μM), microsomes (1 mg/ml) and a NADPH-generating system (0.8 mM glucose-6-phosphate, 0.8 mM magnesium chloride and 0.8 Units of glucose-6-phosphate dehydrogenase). Control samples contained the same material but the microsomes were replaced by heat inactivated (10 minutes at 95 degrees Celsius) microsomes. Recovery of the compounds in the control samples was always 100%.
The mixtures were preincubated for 5 minutes at 37 degrees Celsius. The reaction was started at time point zero (t=0) by addition of 0.8 mM NADP and the samples were incubated for 60 minutes (t=60). The reaction was terminated by the addition of 2 volumes of DMSO. Then the samples were centrifuged for 10 minutes at 900×g and the supernatants were stored at room temperature for no longer as 24 hours before analysis. All incubations were performed in duplo. Analysis of the supernatants was performed with LC-MS analysis. Elution of the samples was performed on a Xterra MS C18 (50×4.6 mm, 5 μm, Waters, US). An Alliance 2790 (Supplier: Waters, US) HPLC system was used. Elution was with buffer A (25 mM ammoniumacetate (pH 5.2) in H2O/acetonitrile (95/5)), solvent B being acetonitrile and solvent C methanol at a flow rate of 2.4 ml/min. The gradient employed was increasing the organic phase concentration from 0% over 50% B and 50% C in 5 min up to 100% B in 1 minute in a linear fashion and organic phase concentration was kept stationary for an additional 1.5 minutes. Total injection volume of the samples was 25 μl.
A Quatro triple quadrupole mass spectrometer fitted with and ESP source was used as detector. The source and the desolvation temperature were set at 120 and 350° C. respectively and nitrogen was used as nebuliser and drying gas. Data were acquired in positive scan mode (single ion reaction). Cone voltage was set at 10 V and the dwell time was 1 second.
Metabolic stability was expressed as % metabolism of the compound after 60 minutes (equation given as Example) of incubation in the presence of active microsomes E(act))

Each structure is given as a SMILES string. Where a name gives a salt, the structure may show the parent alone.

T1 sequence (Q13639 whole entry): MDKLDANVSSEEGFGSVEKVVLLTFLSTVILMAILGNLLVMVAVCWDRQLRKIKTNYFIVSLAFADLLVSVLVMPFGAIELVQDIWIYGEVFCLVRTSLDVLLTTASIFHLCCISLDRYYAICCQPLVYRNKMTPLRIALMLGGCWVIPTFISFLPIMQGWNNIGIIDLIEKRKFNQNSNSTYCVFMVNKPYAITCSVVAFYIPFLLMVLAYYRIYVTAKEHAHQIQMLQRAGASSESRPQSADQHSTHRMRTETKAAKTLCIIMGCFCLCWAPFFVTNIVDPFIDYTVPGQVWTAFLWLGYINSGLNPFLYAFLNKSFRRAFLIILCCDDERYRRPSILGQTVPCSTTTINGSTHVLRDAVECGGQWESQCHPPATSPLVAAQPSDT

As for `O=C(NCC1CCN(CCCc2nnn[nH]2)CC1O)c1cc(Cl)cc2c1OCCCO2` (stereo not drawn) (as salt: HCl) [Compound 7], the melting point is 212 °C.

In turn, `Cc1cc2c(c(C(=O)NC[C@@H]3CCN(CCCc4cc(O)no4)C[C@H]3O)c1)OCCCO2` (hydrate or solvate) [Compound 23] came in with a melting point above 93 °C.

`Cc1cc2c(c(C(=O)NCC3CCN(CCCN4CC(=O)NC4=O)CC3O)c1)OCCCO2` (stereo not drawn) (hydrate or solvate) [Compound 24] had a melting point of 135 °C.

As to `Cc1cc2c(c(C(=O)NC[C@@H]3CCN(CCc4nnn[nH]4)C[C@H]3O)c1)OCCCO2` [Compound 19], the melting point was above 125 °C. The IC50 on h5-HT4b is 46.8 nM. Also, in series [1], the “% metabolised compound after 60 minutes” value is recorded as 1%.
